Assay results published in ChEMBL document CHEMBL5137065, “Recent Advances with KDM4 Inhibitors and Potential Applications” (J Med Chem, 2022).

Key:
[1] = molecular target: T1, Lysine-specific demethylase 4B (Homo sapiens, UniProt O94953); assay: Inhibition of human KDM4B (1 to 347 residues) catalytic domain measured formaldehyde dehydrogenase (FDH)-coupled fluorescence assay
T1 sequence (O94953 whole entry): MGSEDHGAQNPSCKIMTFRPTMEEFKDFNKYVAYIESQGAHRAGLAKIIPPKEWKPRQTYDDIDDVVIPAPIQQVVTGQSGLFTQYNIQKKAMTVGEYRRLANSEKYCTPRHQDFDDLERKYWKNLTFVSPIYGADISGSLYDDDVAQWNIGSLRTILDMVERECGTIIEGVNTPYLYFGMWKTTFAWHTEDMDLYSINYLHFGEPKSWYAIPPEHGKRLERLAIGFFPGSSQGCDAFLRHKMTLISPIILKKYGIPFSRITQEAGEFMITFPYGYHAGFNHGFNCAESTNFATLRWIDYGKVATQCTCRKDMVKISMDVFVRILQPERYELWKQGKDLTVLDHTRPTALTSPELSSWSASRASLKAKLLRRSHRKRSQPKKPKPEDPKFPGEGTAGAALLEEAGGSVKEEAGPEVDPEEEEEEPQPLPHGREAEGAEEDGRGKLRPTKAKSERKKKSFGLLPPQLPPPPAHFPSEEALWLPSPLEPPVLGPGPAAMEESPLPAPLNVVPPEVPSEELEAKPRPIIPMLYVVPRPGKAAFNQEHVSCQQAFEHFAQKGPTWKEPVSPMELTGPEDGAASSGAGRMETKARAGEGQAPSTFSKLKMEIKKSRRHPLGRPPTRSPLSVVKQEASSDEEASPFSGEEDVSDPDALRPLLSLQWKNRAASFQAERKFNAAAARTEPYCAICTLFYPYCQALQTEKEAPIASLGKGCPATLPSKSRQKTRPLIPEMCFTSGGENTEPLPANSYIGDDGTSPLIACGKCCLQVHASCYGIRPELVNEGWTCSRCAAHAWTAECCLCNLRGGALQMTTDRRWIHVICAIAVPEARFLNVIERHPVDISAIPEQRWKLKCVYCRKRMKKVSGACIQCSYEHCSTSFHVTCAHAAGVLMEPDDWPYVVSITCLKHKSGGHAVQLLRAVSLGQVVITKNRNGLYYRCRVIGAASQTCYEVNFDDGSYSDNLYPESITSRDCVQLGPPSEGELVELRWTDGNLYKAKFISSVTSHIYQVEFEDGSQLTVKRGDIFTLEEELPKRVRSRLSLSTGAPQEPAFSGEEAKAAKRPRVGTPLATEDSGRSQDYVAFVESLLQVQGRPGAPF

[2] = molecular target: T2, Lysine-specific demethylase 4C (Homo sapiens, UniProt Q9H3R0); assay: Inhibition of human KDM4C (1 to 347 residues) catalytic domain measured formaldehyde dehydrogenase (FDH)-coupled fluorescence assay
T2 sequence (Q9H3R0 whole entry): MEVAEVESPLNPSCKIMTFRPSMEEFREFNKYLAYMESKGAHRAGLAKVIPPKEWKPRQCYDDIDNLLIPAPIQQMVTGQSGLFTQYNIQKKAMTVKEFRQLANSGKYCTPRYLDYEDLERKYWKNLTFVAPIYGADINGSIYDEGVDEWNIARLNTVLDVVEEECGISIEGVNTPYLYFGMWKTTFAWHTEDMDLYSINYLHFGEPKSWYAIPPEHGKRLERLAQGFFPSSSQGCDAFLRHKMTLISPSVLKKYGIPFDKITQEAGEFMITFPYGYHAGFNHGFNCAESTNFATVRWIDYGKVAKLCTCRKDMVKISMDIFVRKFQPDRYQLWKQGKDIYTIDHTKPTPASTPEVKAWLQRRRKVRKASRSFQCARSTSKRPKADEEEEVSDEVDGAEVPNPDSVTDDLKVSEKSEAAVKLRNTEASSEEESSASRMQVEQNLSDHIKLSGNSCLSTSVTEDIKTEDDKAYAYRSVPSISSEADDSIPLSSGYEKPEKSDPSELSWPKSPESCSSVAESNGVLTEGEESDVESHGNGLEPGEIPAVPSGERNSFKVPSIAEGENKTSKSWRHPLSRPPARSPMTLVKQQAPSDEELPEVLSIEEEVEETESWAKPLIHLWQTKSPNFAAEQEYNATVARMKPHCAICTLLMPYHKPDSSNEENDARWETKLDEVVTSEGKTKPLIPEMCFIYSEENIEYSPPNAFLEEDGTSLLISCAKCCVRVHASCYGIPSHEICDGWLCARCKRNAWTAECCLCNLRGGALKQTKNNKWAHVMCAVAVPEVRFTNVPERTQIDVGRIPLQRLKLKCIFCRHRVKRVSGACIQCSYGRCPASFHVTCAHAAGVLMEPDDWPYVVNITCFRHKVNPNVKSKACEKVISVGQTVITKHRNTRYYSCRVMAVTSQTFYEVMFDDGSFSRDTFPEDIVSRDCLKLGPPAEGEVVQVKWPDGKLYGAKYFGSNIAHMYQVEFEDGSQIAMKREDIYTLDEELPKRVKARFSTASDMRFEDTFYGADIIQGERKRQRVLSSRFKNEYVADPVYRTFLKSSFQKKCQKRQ

[3] = molecular target: T3, Lysine-specific demethylase 4D (Homo sapiens, UniProt Q6B0I6); assay: Inhibition of human KDM4D (1 to 378 residues) catalytic domain measured formaldehyde dehydrogenase (FDH)-coupled fluorescence assay
T3 sequence (Q6B0I6 whole entry): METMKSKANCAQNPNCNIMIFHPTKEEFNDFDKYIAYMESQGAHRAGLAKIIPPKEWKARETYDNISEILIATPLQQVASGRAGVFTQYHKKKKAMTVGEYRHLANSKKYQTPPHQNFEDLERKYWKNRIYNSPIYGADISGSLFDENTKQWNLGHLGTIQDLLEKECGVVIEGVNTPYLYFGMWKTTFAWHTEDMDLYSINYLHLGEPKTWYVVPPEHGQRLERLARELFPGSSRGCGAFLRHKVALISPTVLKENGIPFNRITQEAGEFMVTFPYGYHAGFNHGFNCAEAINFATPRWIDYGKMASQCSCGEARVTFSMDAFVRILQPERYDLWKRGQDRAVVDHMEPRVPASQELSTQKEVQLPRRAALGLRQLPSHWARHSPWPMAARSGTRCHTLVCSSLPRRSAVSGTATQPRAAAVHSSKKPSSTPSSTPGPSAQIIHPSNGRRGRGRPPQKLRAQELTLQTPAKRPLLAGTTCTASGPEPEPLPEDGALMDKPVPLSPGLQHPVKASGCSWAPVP

Measured: IC50

COC(=O)Cc1cc(O)n(-c2nc3ccccc3[nH]2)n1
4 µM: [1] | [2] | [3]
